# Test results as given in patent US20080260845A1, “MULTIPLE ACTIVE DRUG RESIN CONJUGATE” (priority 2003, published 2008).
# Assay: In vitro drug release (dissolution) of codeine/chlorpheniramine resin conjugate suspension
# Type: physicochemical
# Procedure: The dissolution testing shown in Tables I and II was conducted using a release medium of hydrochloric acid, sodium chloride, and sodium dodecylsulfate. […] The dissolution profile for chlorpheniramine, shown in Table II, also is even and predictable, for example, at the initial testing, 42 percent dissolution of chlorpheniramine at 1 hour, 65 percent at 3 hours, 78 percent at 6 hours, and 88 percent at 12 hours.
# Further, Tables I and II show even, predictable drug release data at one and one half months, 3 months, 6 months, and 9 months, with only very minor variations. […] Thus, with aging of the product, the release profile is consistent, allowing use of the present invention in compliance with various stability requirements for pharmaceutical products.
# [1] = 1-Hour, Initial, HCl/NaCl/sodium dodecylsulfate medium
structure (smiles),measurement,setting,value
"CN(C)CCC(c1ccc(Cl)cc1)c1ccccn1 (stereo not shown) [Chlorpheniramine, chlorpheniramine]",Chlorpheniramine Release,"1-Hour, 1.5M, 4O C. aging",41%
same,Chlorpheniramine Release,"1-Hour, 3M, 4O C. aging",43%
same,Chlorpheniramine Release,"1-Hour, 3M, 25 C. aging",43%
same,Chlorpheniramine Release,"1-Hour, 6M, 4O C. aging",39%
same,Chlorpheniramine Release,"1-Hour, 6M, 25 C. aging",41%
same,Chlorpheniramine Release,"1-Hour, 9M, 25 C. aging",42%
same,Chlorpheniramine Release,[1],1-Hour 42%
same,Chlorpheniramine Release,"1-Hour, Initial, HCl/NaCl/sodium dodecylsulfate medium, listed as chlorpheniramine",42%
same,Chlorpheniramine Release,"3-Hour, 1.5M, 4O C. aging",63%
same,Chlorpheniramine Release,"3-Hour, 3M, 4O C. aging",65%
same,Chlorpheniramine Release,"3-Hour, 3M, 25 C. aging",64%
same,Chlorpheniramine Release,"3-Hour, 6M, 4O C. aging",62%
same,Chlorpheniramine Release,"3-Hour, 6M, 25 C. aging",63%
same,Chlorpheniramine Release,"3-Hour, 9M, 25 C. aging",63%
same,Chlorpheniramine Release,"3-Hour, Initial",3-Hour 65%
same,Chlorpheniramine Release,"3-Hour, Initial, listed as chlorpheniramine",65%
same,Chlorpheniramine Release,"6-Hour, 1.5M, 4O C. aging",77%
same,Chlorpheniramine Release,"6-Hour, 3M, 4O C. aging",78%
same,Chlorpheniramine Release,"6-Hour, 3M, 25 C. aging",77%
same,Chlorpheniramine Release,"6-Hour, 6M, 4O C. aging",76%
same,Chlorpheniramine Release,"6-Hour, 6M, 25 C. aging",76%
same,Chlorpheniramine Release,"6-Hour, 9M, 25 C. aging",77%
same,Chlorpheniramine Release,"6-Hour, Initial",6-Hour 78%
same,Chlorpheniramine Release,"6-Hour, Initial, listed as chlorpheniramine",78%
same,Chlorpheniramine Release,"12-Hour, 1.5M, 4O C. aging",87%
same,Chlorpheniramine Release,"12-Hour, 3M, 4O C. aging",90%
same,Chlorpheniramine Release,"12-Hour, 3M, 25 C. aging",88%
same,Chlorpheniramine Release,"12-Hour, 6M, 4O C. aging",87%
same,Chlorpheniramine Release,"12-Hour, 6M, 25 C. aging",87%
same,Chlorpheniramine Release,"12-Hour, 9M, 25 C. aging",88%
same,Chlorpheniramine Release,"12-Hour, Initial",12-Hour 88%
same,Chlorpheniramine Release,"12-Hour, Initial, listed as chlorpheniramine",88%
"COc1ccc2c3c1O[C@H]1[C@@H](O)C=C[C@H]4[C@@H](C2)N(C)CC[C@@]341 [Codeine, codeine]",Codeine Release,"1-Hour, 1.5M, 4O C. aging",55%
same,Codeine Release,"1-Hour, 3M, 4O C. aging",56%
same,Codeine Release,"1-Hour, 3M, 25 C. aging",54%
same,Codeine Release,"1-Hour, 6M, 4O C. aging",54%
same,Codeine Release,"1-Hour, 6M, 25 C. aging",54%
same,Codeine Release,"1-Hour, 9M, 25 C. aging",54%
same,Codeine Release,[1],1-Hour 54%
same,Codeine Release,"1-Hour, Initial, HCl/NaCl/sodium dodecylsulfate medium, listed as codeine",54%
same,Codeine Release,"3-Hour, 1.5M, 4O C. aging",77%
same,Codeine Release,"3-Hour, 3M, 4O C. aging",77%
same,Codeine Release,"3-Hour, 3M, 25 C. aging",75%
same,Codeine Release,"3-Hour, 6M, 4O C. aging",77%
same,Codeine Release,"3-Hour, 6M, 25 C. aging",75%
same,Codeine Release,"3-Hour, 9M, 25 C. aging",75%
same,Codeine Release,"3-Hour, Initial",3-Hour 75%
same,Codeine Release,"3-Hour, Initial, listed as codeine",75%
same,Codeine Release,"6-Hour, 1.5M, 4O C. aging",88%
same,Codeine Release,"6-Hour, 3M, 4O C. aging",88%
same,Codeine Release,"6-Hour, 3M, 25 C. aging",86%
same,Codeine Release,"6-Hour, 6M, 4O C. aging",87%
same,Codeine Release,"6-Hour, 6M, 25 C. aging",85%
same,Codeine Release,"6-Hour, 9M, 25 C. aging",86%
same,Codeine Release,"6-Hour, Initial",6-Hour 86%
same,Codeine Release,"6-Hour, Initial, listed as codeine",86%
same,Codeine Release,"12-Hour, 1.5M, 4O C. aging",95%
same,Codeine Release,"12-Hour, 3M, 4O C. aging",95%
same,Codeine Release,"12-Hour, 3M, 25 C. aging",93%
same,Codeine Release,"12-Hour, 6M, 4O C. aging",94%
same,Codeine Release,"12-Hour, 6M, 25 C. aging",93%
same,Codeine Release,"12-Hour, 9M, 25 C. aging",94%
same,Codeine Release,"12-Hour, Initial",12-Hour 93%
same,Codeine Release,"12-Hour, Initial, listed as codeine",93%
